Values quoted from earlier work, collected in PMC9096979 (ACS Omega, 2022).

Target: myotoxin II (Bothrops asper, UniProt P24605)
Sequence (P24605 17-137 limits assumed): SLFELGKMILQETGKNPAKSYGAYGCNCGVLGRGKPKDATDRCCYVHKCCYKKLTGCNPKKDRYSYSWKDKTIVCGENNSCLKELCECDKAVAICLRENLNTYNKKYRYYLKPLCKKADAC

Question: With Cc1ccc(C(=O)Nc2ccc(S(=O)(=O)O)c3cc(S(=O)(=O)O)cc(S(=O)(=O)O)c23)cc1NC(=O)c1cccc(NC(=O)Nc2cccc(C(=O)Nc3cc(C(=O)Nc4ccc(S(=O)(=O)O)c5cc(S(=O)(=O)O)cc(S(=O)(=O)O)c45)ccc3C)c2)c1 [suramin] as the compound, how does the “inhibition of myotoxin II, in words” value read?
Answer: The value was “capable of inhibiting myotoxin II”.
